Assay results reported in patent US7511047B2, “Kinase inhibitors” (Cytopia Research Pty Ltd, priority 2002, dated 2009).

Tests used:
Format in all cases: biochemical
Jak2 = biological target: T1, Jak2 (Homo sapiens, UniProt O60674); assay: JAK2 kinase domain assay (ELISA or Alphascreen); conditions: capacity to inhibit 50% of activity at 50 μM; read-out: Jak2 inhibitory activity
T1 construct: The kinase domain of humanJAK2 was amplified from U937mRNA; His tag (from pFastBac HTc vector) (N); made in house; host or cells: baculovirus; Sf9 insect cells for virus, High Five cells for large-scale production
Description: (§1) For screening purposes, compounds were diluted in 96 well plates at a concentration of 20 μM. Plates were warmed at 37° C. for 30 minutes before assay.
(§2) • JAK1 PCR products were cloned into the pFastBac HTb expression vector (Gibco) via the Xho I and Kpn I sites. The JAK1 plasmid was then transformed into competent DH10Bac cells (Gibco), and the recombinant baculovirus produced prepared for transfection into Sf9 insect cells. JAK2 • The kinase domain of humanJAK2 was amplified from U937mRNA using the polymerase chain reaction with the following primers:
• JAK2 PCR products were cloned into the pFastBac HTc expression vector (Gibco) via the Sal I and Not I sites. The JAK2 plasmid was then transformed into competent DH10Bac cells (Gibco), and the recombinant baculovirus produced prepared for transfection into Sf9 insect cells. JAK3 • The kinase domain of humanJAK3 was amplified from U937mRNA using the polymerase chain reaction with the following primers: […]
(§3) Baculovirus preparations from each of the JAK family members were infected into five litres of High Five cells (Invitrogen) grown in High Five serum free medium (Invitrogen) to a cell density of approximately 1-2×10^6 cells/ml. Cells are infected with virus at a MOI of 0.8-3.0. Cells were harvested and lysed. JAK kinase domains were purified by affinity chromatography on a Probond (Invitrogen) nickel chelate affinity column.
(§4) Kinase assays were performed either in a 96 well capture-based ELISA assay or in 384 well Optiplates (Packard) using an Alphascreen Protein Tyrosine Kinase kit. In either casse using approximately 1.5 μg of affinity purified PTK domain in the presence of 50 mM HEPES, pH 7.5, 10 mM MgCl2, 150 mM NaCl and 10 μM-1 mM ATP. The biotinylated substrate biotin-EGPWLEEEEEAYGWMDF-NH2 (SEQ ID NO:9) (final concentration 5 μM) was used as substrate. In the ELISA assay tyrosine phosphorylation was quantitated following transfer to an avidin coated ELISA plate using peroxidase-linked anti-phospho-tyrosine antibody PY20. In the Alphascreen assay, Alphascreen phosphotyrosine acceptor beads followed by streptavidin donor beads were added under subdued light. The ELISA plates were read on a BMG Fluorostar, the Alphascreen plates were read on a Packard Fusion Alpha. Inhibitors were added to the assays fifteen minutes prior to the addition of ATP. Inhibitors were added in aqueous DMSO, with DMSO concentrations never exceeding 1%.

Jak3 = biological target: T2, Jak3 (Homo sapiens, UniProt P52333); assay: JAK3 kinase domain assay (ELISA or Alphascreen); conditions: capacity to inhibit 50% of activity at 50 μM; read-out: Jak3 inhibitory activity
T2 construct: The kinase domain of humanJAK3 was amplified from U937mRNA; His tag (from pFastBac HTb vector) (N); made in house; host or cells: baculovirus; Sf9 insect cells for virus, High Five cells for large-scale production
Description: as §1
• JAK2 PCR products were cloned into the pFastBac HTc expression vector (Gibco) via the Sal I and Not I sites. The JAK2 plasmid was then transformed into competent DH10Bac cells (Gibco), and the recombinant baculovirus produced prepared for transfection into Sf9 insect cells. JAK3 • The kinase domain of humanJAK3 was amplified from U937mRNA using the polymerase chain reaction with the following primers:
as §2, with “JAK3” for “JAK1”, “TYK2” for “JAK2”, “humanTYK2” for “humanJAK2”, “A549 mRNA” for “U937mRNA”, “primers: […]” for “primers:”
as §3, §4

abl = biological target: T3, abl (Homo sapiens, UniProt P00519); assay: abl kinase assay (ELISA or Alphascreen); conditions: capacity to inhibit 50% of activity at 50 μM; read-out: abl inhibitory activity
T3 sequence (P00519 242-493 limits assumed): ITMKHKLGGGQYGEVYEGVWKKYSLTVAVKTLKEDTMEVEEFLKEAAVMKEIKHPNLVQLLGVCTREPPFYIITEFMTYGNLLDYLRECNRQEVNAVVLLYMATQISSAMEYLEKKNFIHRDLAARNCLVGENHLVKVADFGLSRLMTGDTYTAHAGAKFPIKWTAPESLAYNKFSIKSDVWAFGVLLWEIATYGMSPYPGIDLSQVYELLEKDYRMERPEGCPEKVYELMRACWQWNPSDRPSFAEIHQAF
Description: as §1, §4

hck = hck (Homo sapiens, UniProt P08631); assay: hck kinase assay (ELISA or Alphascreen); conditions: capacity to inhibit 50% of activity at 50 μM; read-out: hck inhibitory activity
Description: as §1, §4

kdr = kdr (Homo sapiens, UniProt P35968); assay: kdr kinase assay (ELISA or Alphascreen); conditions: capacity to inhibit 50% of activity at 50 μM; read-out: kdr inhibitory activity
Description: as §1, §4

hck, sequence (P08631 262-515 limits assumed, species assumed): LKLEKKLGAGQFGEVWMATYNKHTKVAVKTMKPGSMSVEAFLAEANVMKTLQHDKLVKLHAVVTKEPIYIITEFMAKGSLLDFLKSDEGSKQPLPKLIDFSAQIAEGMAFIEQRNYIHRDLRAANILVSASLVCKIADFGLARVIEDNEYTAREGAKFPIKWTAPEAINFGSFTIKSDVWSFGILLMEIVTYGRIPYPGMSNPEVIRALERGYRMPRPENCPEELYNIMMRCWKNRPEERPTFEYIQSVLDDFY
T2 sequence (P52333 822-1111 limits assumed): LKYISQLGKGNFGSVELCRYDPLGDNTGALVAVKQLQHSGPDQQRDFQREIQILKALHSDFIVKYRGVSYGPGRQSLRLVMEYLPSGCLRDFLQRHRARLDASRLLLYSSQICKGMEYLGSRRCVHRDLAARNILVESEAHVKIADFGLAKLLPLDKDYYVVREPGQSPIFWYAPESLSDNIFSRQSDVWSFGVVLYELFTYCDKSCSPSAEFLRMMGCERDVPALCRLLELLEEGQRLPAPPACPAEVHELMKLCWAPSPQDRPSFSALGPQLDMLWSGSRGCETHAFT
kdr, sequence (P35968 834-1162 limits assumed, species assumed): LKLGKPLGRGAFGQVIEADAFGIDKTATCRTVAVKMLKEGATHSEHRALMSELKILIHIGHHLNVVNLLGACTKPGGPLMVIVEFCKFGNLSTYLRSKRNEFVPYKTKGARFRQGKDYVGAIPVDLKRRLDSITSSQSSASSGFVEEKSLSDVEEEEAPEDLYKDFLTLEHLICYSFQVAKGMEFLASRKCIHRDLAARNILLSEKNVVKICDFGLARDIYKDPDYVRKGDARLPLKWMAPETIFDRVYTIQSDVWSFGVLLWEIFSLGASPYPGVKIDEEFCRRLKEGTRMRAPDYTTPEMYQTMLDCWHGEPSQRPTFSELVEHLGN
T1 sequence (O60674 849-1124 limits assumed): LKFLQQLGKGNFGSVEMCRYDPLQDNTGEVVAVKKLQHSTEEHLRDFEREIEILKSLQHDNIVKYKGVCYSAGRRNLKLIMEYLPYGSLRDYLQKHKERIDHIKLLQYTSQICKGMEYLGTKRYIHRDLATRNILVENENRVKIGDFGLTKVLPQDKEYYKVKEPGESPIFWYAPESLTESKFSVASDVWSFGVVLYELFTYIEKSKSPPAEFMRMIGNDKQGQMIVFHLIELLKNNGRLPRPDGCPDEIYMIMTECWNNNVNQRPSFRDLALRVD

SMILES	inhibition at 50 µM (Jak2)	inhibition at 50 µM (Jak3)	inhibition at 50 µM (abl)	inhibition at 50 µM (hck)	inhibition at 50 µM (kdr)
c1ccc(CNc2cncc(-n3cnc4ccccc43)n2)cc1	> 50%	> 50%	> 50%	> 50%	< 50%
CNCCN(C)Cc1ccc2ncn(-c3cncc(NC(C)c4ccc(F)cc4)n3)c2c1 (stereo not shown)	> 50%	< 50%	< 50%	> 50%	> 50%
c1ccc2c(c1)ncn2-c1cncc(Nc2ccc(N3CCOCC3)cc2)n1	< 50%	< 50%	< 50%	> 50%	> 50%
C[C@H](Nc1cncc(-n2cnc3cc(C4=NCCO4)ccc32)n1)c1ccccc1	< 50%	< 50%	> 50%	> 50%	> 50%
C[C@H](Nc1cncc(-n2cnc3cc(NC(=O)C4CCCNC4)ccc32)n1)c1ccccc1 (stereo partly shown)	> 50%	> 50%	> 50%	> 50%	> 50%
CCN(CC)Cc1ccc2ncn(-c3cncc(NC(C)c4ccc(F)cc4)n3)c2c1 (stereo not shown)	> 50%	< 50%	< 50%	> 50%	> 50%
C[C@H](Nc1cncc(-n2cnc(-c3ccccc3)c2)n1)c1ccccc1	< 50%	> 50%	< 50%	> 50%	< 50%
C[C@H](Nc1cncc(-n2cnc3ccc(C(=O)NCCCN4CCOCC4)cc32)n1)c1ccccc1	> 50%	< 50%	> 50%	> 50%	> 50%
C[C@H](Nc1cncc(-n2cnc3ccc(N)cc32)n1)c1ccccc1	> 50%	< 50%	> 50%	> 50%	> 50%
C[C@H](Nc1cncc(-n2cnc3cc(C(=O)NCCCn4ccnc4)ccc32)n1)c1ccccc1	> 50%	< 50%	> 50%	> 50%	> 50%
C[C@H](Nc1cncc(-n2cnc3cc(C(=O)NCc4ccccc4)ccc32)n1)c1ccccc1	< 50%	< 50%	> 50%	> 50%	> 50%
C[C@H](Nc1cncc(-n2cnc3cc(NC(=O)C4CC4)ccc32)n1)c1ccccc1	< 50%	< 50%	> 50%	> 50%	> 50%
Cc1nc2ccccc2n1-c1cncc(N[C@@H](C)c2ccccc2)n1	< 50%	< 50%	< 50%	< 50%	< 50%
C[C@H](Nc1cncc(-n2cnc3ccc(C4=NCCO4)cc32)n1)c1ccccc1	> 50%	< 50%	> 50%	> 50%	> 50%
CC(=O)Nc1ccc2ncn(-c3cncc(N[C@@H](C)c4ccccc4)n3)c2c1	> 50%	< 50%	> 50%	> 50%	> 50%
C[C@H](Nc1cncc(-n2cnc3cc(NC(=O)C(C)(C)C)ccc32)n1)c1ccccc1	> 50%	> 50%	> 50%	> 50%	> 50%
C[C@H](Nc1cncc(-n2cnc3cc(C(=O)Nc4ccccc4)ccc32)n1)c1ccccc1	< 50%	< 50%	> 50%	> 50%	< 50%
C[C@H](Nc1cncc(-n2cnc3cc(Br)ccc32)n1)c1ccccc1	> 50%	> 50%	> 50%	> 50%	> 50%
C[C@H](Nc1cncc(-n2cnc3cc(C(=O)N4CCOCC4)ccc32)n1)c1ccccc1	< 50%	< 50%	> 50%	> 50%	> 50%
CC(Nc1cncc(-n2cnc3ccccc32)n1)c1ccc(-c2ccccc2)cc1 (stereo not shown)	< 50%	< 50%	> 50%	> 50%	< 50%
